The source of these data is patent US9920010B2, “CXCR7 receptor modulators” (IDORSIA PHARMACEUTICALS LTD, priority 2013, dated 2018).

The test concerns the target T1, CXCR7 (Homo sapiens, UniProt P25106).
T1 construct: host or cells: CHO-K1 (PathHunter CHO-K1 CXCR7 b-arrestin cell line, stably transfected)
The test is described as follows: PathHunter CHO-K1 CXCR7 b-arrestin recruitment assay (CXCR7 agonistic activity). It counts as cell-based. To be noted: PathHunter CHO-K1 CXCR7 b-arrestin cell line. The method, boiled down: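 Stable CHO-K1 line with C-terminally ProLink-tagged CXCR7 and β-arrestin 2–EA fusion; β-arrestin recruitment restores β-gal activity, read by chemiluminescence after 1 h RT detection. Cells seeded 24 h, starved in OPTIMEM 3–4 h, exposed to compounds 90 min at 37 °C in HBSS/HEPES/BSA. Geometric-mean EC50 from repeated measurements.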
Background: Arrestin recruitment assays detect the binding of arrestin to an activated receptor.

T1 sequence (P25106 whole entry): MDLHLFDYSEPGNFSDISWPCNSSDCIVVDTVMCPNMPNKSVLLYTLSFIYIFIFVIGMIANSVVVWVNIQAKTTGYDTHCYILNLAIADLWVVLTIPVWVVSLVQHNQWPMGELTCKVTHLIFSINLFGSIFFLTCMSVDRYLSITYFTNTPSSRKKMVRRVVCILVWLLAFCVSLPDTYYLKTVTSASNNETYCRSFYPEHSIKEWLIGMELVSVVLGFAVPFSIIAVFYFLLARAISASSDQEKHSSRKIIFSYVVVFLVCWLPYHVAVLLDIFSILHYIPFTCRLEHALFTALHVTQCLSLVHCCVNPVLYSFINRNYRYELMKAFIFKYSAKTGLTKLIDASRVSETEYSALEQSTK
T1 sequence (P32121 whole entry partner): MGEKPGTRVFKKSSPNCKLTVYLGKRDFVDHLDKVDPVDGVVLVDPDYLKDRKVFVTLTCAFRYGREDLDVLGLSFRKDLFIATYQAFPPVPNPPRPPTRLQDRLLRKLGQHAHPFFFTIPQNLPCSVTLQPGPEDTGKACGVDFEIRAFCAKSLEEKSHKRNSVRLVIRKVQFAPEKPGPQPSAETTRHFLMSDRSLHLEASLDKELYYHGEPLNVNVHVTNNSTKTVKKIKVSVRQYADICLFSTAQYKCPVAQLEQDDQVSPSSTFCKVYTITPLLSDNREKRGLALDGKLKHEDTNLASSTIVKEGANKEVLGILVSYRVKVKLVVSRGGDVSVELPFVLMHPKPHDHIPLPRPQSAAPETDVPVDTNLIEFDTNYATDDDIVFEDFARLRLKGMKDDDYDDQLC

For `CCC(=O)N1CCc2c(cccc2NCC(=O)N(CCN(C)C)Cc2ccccc2)C1` [compound 111, N-Benzyl-N-(2-dimethylamino-ethyl)-2-(2-propionyl-1,2,3,4-tetrahydro-isoquinolin-5-ylamino)-acetamide], the EC50 was 0.032 µM.
As to `CC1c2cccc(NCC(=O)N(CCN(C)C)Cc3ccccc3C(F)(F)F)c2CCN1CC1CC1` (single isomer, unassigned) [Example 211b, (R)- or (S)-2-((2-(Cyclopropylmethyl)-1-methyl-1,2,3,4-tetrahydroisoquinolin-5-yl)amino)-N-(2-(dimethylamino)ethyl)-N-(2-(trifluoromethyl)benzyl)acetamide], the EC50 was found to be 0.006 µM.
In turn, `C=CCN1CCc2cccc(NCC(=O)N(CCN(C)CCF)Cc3ccccc3C(F)(F)F)c2C1` [compound 465, 2-(2-Allyl-1,2,3,4-tetrahydro-isoquinolin-8-ylamino)-N-{2-[(2-fluoro-ethyl)-methyl-amino]-ethyl}-N-(2-trifluoromethyl-benzyl)-acetamide] returned an EC50 of 0.039 µM.
The same measure for `CCC(=O)N1CCc2c(cccc2NCC(=O)N(CCN(C)C)Cc2ccccc2OC)C1` [Example 28, N-(2-Dimethylamino-ethyl)-N-(2-methoxy-benzyl)-2-(2-propionyl-1,2,3,4-tetrahydro-isoquinolin-5-ylamino)-acetamide]: 0.063 µM; for `CCN1CCc2cccc(NCC(=O)N(CCN(C)C)Cc3cccc(C(F)(F)F)c3)c2C1` [compound 505, N-(2-Dimethylamino-ethyl)-2-(2-ethyl-1,2,3,4-tetrahydro-isoquinolin-8-ylamino)-N-(3-trifluoromethyl-benzyl)-acetamide]: 0.042 µM; for `CN(C)CCN(Cc1ccccc1C(F)(F)F)C(=O)CCc1cccc2c1CCN(CC1CC1)C2` [compound 158, 3-(2-Cyclopropylmethyl-1,2,3,4-tetrahydro-isoquinolin-5-yl)-N-(2-dimethylamino-ethyl)-N-(2-trifluoromethyl-benzyl)-propionamide]: 0.002 µM.
The compound `O=C(Cc1cccc2c1CCN(CC1CC1)C2)N(CCN1CCCC1)Cc1ccccc1C(F)(F)F` [Example 7, 2-(2-Cyclopropylmethyl-1,2,3,4-tetrahydro-isoquinolin-5-yl)-N-(2-pyrrolidin-1-yl-ethyl)-N-(2-trifluoromethyl-benzyl)-acetamide] had an EC50 of 0.032 µM.
`CN(C)CCN(Cc1ccccc1C(F)(F)F)C(=O)CNc1cccc2c1CN(C(=O)N1CCCC1)CC2` [compound 561, N-(2-Dimethylamino-ethyl)-2-[2-(pyrrolidine-1-carbonyl)-1,2,3,4-tetrahydro-isoquinolin-8-ylamino]-N-(2-trifluoromethyl-benzyl)-acetamide]: the EC50 turned out to be 0.007 µM.
In turn, `O=C(CNc1cccc2c1CCN(CC1CC1)C2)N(Cc1ccccc1C(F)(F)F)C1CCNCC1` [compound 440, 2-(2-Cyclopropylmethyl-1,2,3,4-tetrahydro-isoquinolin-5-ylamino)-N-piperidin-4-yl-N-(2-trifluoromethyl-benzyl)-acetamide] showed an EC50 of 0.015 µM.
The same measure for `CCN1CCc2cccc(NCC(=O)N(CCN(C)C)Cc3ccccc3Cl)c2C1` [compound 500, N-(2-Chloro-benzyl)-N-(2-dimethylamino-ethyl)-2-(2-ethyl-1,2,3,4-tetrahydro-isoquinolin-8-ylamino)-acetamide]: 0.031 µM.
As for `CN(CCN(Cc1ccccc1C(F)(F)F)C(=O)CNc1cccc2c1CCN(CC1CC1)C2)C1CCCC1` [compound 451, N-[2-(Cyclopentyl-methyl-amino)-ethyl]-2-(2-cyclopropylmethyl-1,2,3,4-tetrahydro-isoquinolin-5-ylamino)-N-(2-trifluoromethyl-benzyl)-acetamide], a half-maximal effect (EC50) was put at 0.001 µM.
The same measure for `CN(C)CCN(Cc1ccccc1C(F)(F)F)C(=O)CNc1ccc(F)c2c1CCN(CC1CC1)C2` [Example 288, 2-(2-Cyclopropylmethyl-8-fluoro-1,2,3,4-tetrahydro-isoquinolin-5-ylamino)-N-(2-dimethylamino-ethyl)-N-(2-trifluoromethyl-benzyl)-acetamide]: 0.023 µM; for `COCC(C)N1CCc2c(cccc2NCC(=O)N(CCN(C)C)Cc2ccccc2C(F)(F)F)C1` (racemic) [Example 354, rac-N-(2-Dimethylamino-ethyl)-2-[2-(2-methoxy-1-methyl-ethyl)-1,2,3,4-tetrahydro-isoquinolin-5-ylamino]-N-(2-trifluoromethyl-benzyl)-acetamide]: 0.011 µM.
For `CCN1CCc2cccc(NCC(=O)N(CCc3cccc(C(F)(F)F)c3)CCN(C)C)c2C1` [compound 539], the concentration giving a half-maximal response (EC50) amounted to 0.115 µM.
Take `CN(C)CCN(Cc1ncccc1Cl)C(=O)CNc1cccc2c1CN(C(=O)[C@H]1C[C@H]1F)CC2` (relative stereo) [compound 459]: the EC50 worked out at 0.059 µM.
With `CN(C)CCN(Cc1ccccc1)C(=O)CNc1cccc2c1CCN(CCC(C)(C)C)C2` [compound 120], the midpoint of the response, the EC50, lay at 0.154 µM.
`CN(C)CCN(Cc1ccccc1)C(=O)CNc1cccc2c1CCN(C(=O)Oc1ccccc1)C2` [compound 130] registered an EC50 of 0.39 µM.
`CN1CCC(N(Cc2ccccc2C(F)(F)F)C(=O)CNc2cccc3c2CN(CC2CC2)CC3(C)C)CC1` [compound 200] yielded an EC50 of 0.235 µM.
With `CCN1CCc2cccc(NCC(=O)N(CCN(C)C)Cc3cccc(C(F)(F)F)n3)c2C1` [compound 532, N-(2-Dimethylamino-ethyl)-2-(2-ethyl-1,2,3,4-tetrahydro-isoquinolin-8-ylamino)-N-(6-trifluoromethyl-pyridin-2-ylmethyl)-acetamide] the figure was 0.03 µM; with `CC(C)CCN(Cc1ccccc1)C(=O)CNc1cccc2c1CCN(C(=O)OC(C)(C)C)C2` [Example 9, 5-({[Benzyl-(3-methyl-butyl)-carbamoyl]-methyl}-amino)-3,4-dihydro-1H-isoquinoline-2-carboxylic acid tert-butyl ester], 0.451 µM; with `CCN1CCc2cccc(NCC(=O)N(CCN(C)C(=O)OC(C)(C)C)Cc3ccccc3)c2C1` [compound 493], 0.249 µM.
With `COCCN1CCc2c(/C=C/C(=O)N(CCN(C)C)Cc3ncccc3Cl)cccc2C1` [Example 327, (E)-N-(3-Chloro-pyridin-2-ylmethyl)-N-(2-dimethylamino-ethyl)-3-[2-(2-methoxy-ethyl)-1,2,3,4-tetrahydro-isoquinolin-5-yl]-acrylamide] the figure was 0.02 µM.
The same measure for `CN(C)CCN(Cc1ccccc1C(F)(F)F)C(=O)CCc1cccc2c1CCN(C(=O)OC(C)(C)C)C2` [Example 99, 5-{2-[(2-Dimethylamino-ethyl)-(2-trifluoromethyl-benzyl)-carbamoyl]-ethyl}-3,4-dihydro-1H-isoquinoline-2-carboxylic acid tert-butyl ester]: 0.177 µM.
The compound `CCC(=O)N1CCc2c(cccc2NCC(=O)N(CCN(C)C)Cc2ccc(OC)cc2)C1` [Example 30, N-(2-Dimethylamino-ethyl)-N-(4-methoxy-benzyl)-2-(2-propionyl-1,2,3,4-tetrahydro-isoquinolin-5-ylamino)-acetamide] showed an EC50 of 0.283 µM.
In turn, `CC(C)CCN(Cc1ccccc1C(F)(F)F)C(=O)CNc1cccc2c1CCN(CC1CC1)C2` [Example 48, 2-(2-Cyclopropylmethyl-1,2,3,4-tetrahydro-isoquinolin-5-ylamino)-N-(3-methyl-butyl)-N-(2-trifluoromethyl-benzyl)-acetamide] returned an EC50 of 0.052 µM.
As for `CNCCN(Cc1ncccc1Cl)C(=O)CNc1cccc2c1CCN(CC1CC1)C2` [compound 436, N-(3-Chloro-pyridin-2-ylmethyl)-2-(2-cyclopropylmethyl-1,2,3,4-tetrahydro-isoquinolin-5-ylamino)-N-(2-methylamino-ethyl)-acetamide], the EC50 came out at 0.009 µM.
`CCN1CCc2cccc(NCC(=O)N(CCN(C)C)Cc3ccccn3)c2C1` [compound 540] returned an EC50 of 0.22 µM.
For `CNCCN(Cc1ncccc1C(F)(F)F)C(=O)CNc1cccc2c1CCN(C(=O)C(C)(C)C)C2` [compound 415], the response was half-maximal at 0.178 µM (EC50).
With `CCN(Cc1ccccc1Cl)C(=O)CNc1cccc2c1CCN(CC1CC1)C2` [Example 66, N-(2-Chloro-benzyl)-2-(2-cyclopropylmethyl-1,2,3,4-tetrahydro-isoquinolin-5-ylamino)-N-ethyl-acetamide] the figure was 0.168 µM; with `CN(C)CCN(Cc1ccccc1)C(=O)/C=C/c1cccc2c1CCN(C(=O)OC(C)(C)C)C2` [Example 93, 5-{(E)-2-[Benzyl-(2-dimethylamino-ethyl)-carbamoyl]-vinyl}-3,4-dihydro-1H-isoquinoline-2-carboxylic acid tert-butyl ester], 0.088 µM.
With “2-(2-Cyclopropylmethyl-1,2,3,4-tetrahydro-isoquinolin-5-ylamino)-N-isoxazol-5-ylmethyl-N-(2-trifluoromethyl-benzyl)-acetamide [Example 250]”, a half-maximal effect (EC50) was put at 0.031 µM.
Compound `CN1CCCC1CCN(Cc1ccccc1)C(=O)CNc1cccc2c1CCN(CC1CC1)C2` (racemic) [Example 42, rac-N-Benzyl-2-(2-cyclopropylmethyl-1,2,3,4-tetrahydro-isoquinolin-5-ylamino)-N-[2-(1-methyl-pyrrolidin-2-yl)-ethyl]-acetamide] yielded an EC50 of 0.005 µM.
In turn, `CCCN1CCc2c(cccc2NCC(=O)N(CCN(C)C)Cc2ccccc2C(F)(F)F)C1` [Example 573, N-(2-Dimethylamino-ethyl)-2-(2-propyl-1,2,3,4-tetrahydro-isoquinolin-5-ylamino)-N-(2-trifluoromethyl-benzyl)-acetamide] came in with a concentration for a half-maximal effect (EC50) of 0.003 µM.
Turning to `N#CCCN(Cc1ccccc1)C(=O)CNc1cccc2c1CCN(CC1CC1)C2` [Example 67, N-Benzyl-N-(2-cyano-ethyl)-2-(2-cyclopropylmethyl-1,2,3,4-tetrahydro-isoquinolin-5-ylamino)-acetamide], a half-maximal effect (EC50) was put at 0.115 µM.

One may read the EC50 as the concentration giving half of the maximal effect. A low value points to a more potent agent.
